These results are taken from patent US20260165956A1, “IN VIVO TARGETING OF THERAPEUTIC MOLECULES TO THE RETINA VIA THE OPTICAL SYSTEM OF THE EYE” (SEMMELWEIS EGYETEM, priority 2022, published 2026).

The target of series [1] is T1, VEGFR2 (Homo sapiens, UniProt P35968).
T1 construct: host or cells: HEK293 (VEGFR2/NFAT Reporter recombinant cell line)
The series can be described thus: VEGFR2/NFAT Reporter HEK293 luciferase assay of VEGF signaling. Type of series: cell-based. The conditions noted are these: VEGFR2-HEK cells; for IC50: 20 ng/ml VEGF165; for Dark/Light: ratio of IC50 dark to IC50 light. Here is the method:
We have cultured the cells and conducted the measurements according to the manufacturer's instructions.
On the day preceding the measurement, 40 000 recombinant HEK cells were seeded into each well of a 96 well plate in a way that the experiments could be conducted in triplicates. […] For the conditions requiring irradiation, the plate was placed under a cold white LED light source within the incubator (37° C., 5% CO2) for the first 10 minutes of the 1-hour-long incubation with the inhibitors to imitate day-light, while the other plate was kept in the dark (also at 37° C., 5% CO2). Following the pre-incubation with inhibitors we treated the cells for 4 hours with VEGF without removing the inhibitors. For this purpose we used 20 ng/ml of commercially available human VEGF165 (Sf9 derived, from BPS BioScience Inc., Cat. No.: 91001-1) added directly into the cell-culture medium.
The IC50 values were calculated using the GraphPad Prism software.

Series [2] relates to human retinal microvascular endothelial cells (HRMEC). The series is described as follows: tubulogenesis (in vitro angiogenesis) assay, number of meshes. Type of series: cell-based. The conditions noted are these: for IC50 / Dark/Light: HRMEC tubulogenesis; for Dark/Light: ratio of IC50 dark to IC50 light. The text has this: These cells preserve their endothelial nature, and when cultured on an appropriate extracellular matrix, they spontaneously form a network that corresponds to a network of capillaries. Images of such networks taken with a microscope can be quantified, and several parameters (such as the number of segments, number of closed loops, number of junction points) of the network can be quantified and used as a parameter describing the angiogenesis in vitro [Staton et al., 2009].
The inventors have applied their proprietary azidated inhibitors described in the present patent in an ascending series of concentrations. For all the said azidated inhibitors, the in vitro angiogenesis experiments were carried out both in complete darkness and in defined illumination conditions. The number of closed loops (number of meshes) was identified using an image recognition algorithm, and an IC50 curve was fitted onto the number of meshes plotted against substance concentration. […] These experiments thus provided further proof, that light increases the inhibitory potential of the novel azidated compounds described in the present patent.
In vitro angiogenesis (hereinafter referred to as “tubulogenesis”) mimicks several features of angiogenetic processes observed in vivo in vertebrate animals [Staton et al., 2009] and is based on the VEGF-dependent self-organizing capacity of endothelial cells via which tube-like structures emerge that share many properties with in vivo observed blood vessels. Therefore, the inhibitory potential of the newly synthetized molecules of the present invention was also assessed in tubulogenesis assay using human retinal microvascular endothelial cells (HRMEC) derived from post mortem human donors. When seeded onto a collagen and laminin containing matrix, HRMEC spontaneously form a two-dimensional blood-vessel-like network displaying several quantifiable features that can be used to measure angiogenic potential [Staton et al., 2009]. The newly synthetized, PMO-containing VEGFR inhibitors were added to the culture medium in increasing concentrations to test whether they can inhibit the spontaneous formation of the network from HRMEC. The increasing concentrations allowed the inventors to calculate the IC50 values for each inhibitor molecule. The results of these experiments (table 2.) have shown that the new, PMO-containing azidated inhibitors were capable of inhibiting the tubulogenesis. Furthermore, in the presence of light, the inhibition was stronger than in the dark, providing evidence for the photoactivation and the concomitant covalent binding of the azidated inhibitors to their target receptors.
To test the inhibitory effect of the compounds with light and without light on tubulogenesis [Staton et al., 2009], we have used human retinal microvascular endothelial cells (HRMEC) from Cell Systems (Kirkland, WA 98033, cat. N^o: ACBRI 181). VEGF165 (Invitrogen) was only used as a positive control in these experiments, otherwise tubulogenesis relied on endogenous VEGF produced by the culture.
Assays were performed in a 96-well cell culture plate (Biologix). The basement membrane matrix Geltrex (Invitrogen) was thawed on ice overnight before use. 50 μl Geltrex was added to each well with a chilled pipette, then the plate was centrifuged at 2000 rpm for 10 min at 4° C. Subsequently the matrix was let solidify in a humidified incubator at 37° C. for at least 30 minutes. Before seeding, HRMEC cells were treated with compounds (0.1 nM-10 μM) in EBM-2 medium (Lonza) in the dark. After 5 minutes, 100 μl of suspension of treated cells was seeded into each Geltrex-coated well of the plate at a density of 10^3 cells/well and then exposed to light treatment (cold white LED light) for 10 min at 37° C. and 5% CO2 or kept in the dark (control plate) in the incubator during light treatment. Subsequently both the irradiated and the control plates were left in the incubator for 12 hours so that the tubulogenesis can proceed. […]

The test system of series [3] is neovascular AMD. The conditions noted are these: oral, phase I, patients; cited from earlier work.
The subject of series [4] is neovascular AMD. The note with it: oral, phase II, trial prematurely stopped; cited from earlier work.
[5] abbreviates: cold white LED light for the first 10 min of 1 h pre-incubation, read-out: IC50 Light.
[6] abbreviates: kept in the dark, read-out: IC50 Dark.
[7] abbreviates: Homo sapiens, HRMEC, 10 min, cold white LED light 10 min, no Ko-143, read-out: IC50 Light.
The mark [8] stands for this setting: Homo sapiens, HRMEC, dark, no Ko-143, read-out: IC50 Dark.

Several values for one entry are separate records, joined by “and”; a condition that tells them apart may be missing. Identical values can stand only once. Entries after “also recorded” stand apart in the source; their conditions may differ. Like-named read-outs stand apart in the source and are kept apart here.

T1 sequence (P35968 20-1356): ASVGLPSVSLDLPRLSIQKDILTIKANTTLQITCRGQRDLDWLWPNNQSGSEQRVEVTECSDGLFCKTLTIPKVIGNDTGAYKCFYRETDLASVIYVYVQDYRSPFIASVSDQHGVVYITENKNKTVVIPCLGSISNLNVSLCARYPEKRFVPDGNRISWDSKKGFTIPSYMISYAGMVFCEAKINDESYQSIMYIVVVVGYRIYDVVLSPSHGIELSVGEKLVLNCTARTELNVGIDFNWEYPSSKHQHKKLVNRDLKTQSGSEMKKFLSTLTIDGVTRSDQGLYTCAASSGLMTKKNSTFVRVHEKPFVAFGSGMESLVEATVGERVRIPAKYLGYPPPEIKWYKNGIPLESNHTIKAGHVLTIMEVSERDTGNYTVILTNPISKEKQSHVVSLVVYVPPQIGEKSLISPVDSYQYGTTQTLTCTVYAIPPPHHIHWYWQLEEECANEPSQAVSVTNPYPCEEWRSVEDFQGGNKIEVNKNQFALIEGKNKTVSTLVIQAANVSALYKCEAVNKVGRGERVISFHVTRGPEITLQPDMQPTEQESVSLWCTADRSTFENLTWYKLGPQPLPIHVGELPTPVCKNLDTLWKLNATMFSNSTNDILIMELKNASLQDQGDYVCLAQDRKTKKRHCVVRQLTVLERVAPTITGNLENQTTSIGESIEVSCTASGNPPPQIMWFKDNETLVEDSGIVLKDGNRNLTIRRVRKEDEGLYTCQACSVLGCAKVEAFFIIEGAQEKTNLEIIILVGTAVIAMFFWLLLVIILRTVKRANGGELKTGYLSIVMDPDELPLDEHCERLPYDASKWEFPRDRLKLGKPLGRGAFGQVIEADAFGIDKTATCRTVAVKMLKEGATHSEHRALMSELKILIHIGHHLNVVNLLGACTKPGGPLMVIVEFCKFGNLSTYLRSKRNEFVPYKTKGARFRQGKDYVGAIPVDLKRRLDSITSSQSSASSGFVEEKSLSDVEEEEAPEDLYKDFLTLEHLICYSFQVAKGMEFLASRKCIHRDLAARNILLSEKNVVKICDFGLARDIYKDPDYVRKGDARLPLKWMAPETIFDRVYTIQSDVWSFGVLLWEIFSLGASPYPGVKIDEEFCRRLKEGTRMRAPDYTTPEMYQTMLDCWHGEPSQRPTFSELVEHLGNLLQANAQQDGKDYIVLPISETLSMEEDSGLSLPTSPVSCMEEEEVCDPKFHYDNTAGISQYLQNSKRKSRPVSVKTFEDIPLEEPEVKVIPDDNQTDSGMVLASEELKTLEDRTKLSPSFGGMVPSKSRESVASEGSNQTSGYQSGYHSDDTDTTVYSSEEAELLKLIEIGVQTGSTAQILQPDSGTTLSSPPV

Usually IC50 stands for the concentration needed to halve the response being measured. With `CCN(CC)CCNC(=O)c1c(C)[nH]c(/C=C2\C(=O)Nc3cc(N=[N+]=[N-])ccc32)c1C` [5-defluoro-6-azido-sunitinib (2), 5-defluoro-6-azido-sunitinib], the half-inhibitory concentration (IC50) in series [1] (setting [5]) turned out to be 0.0093 µM; in series [1] (setting [6]) it was 0.0937 µM; in series [2] (setting [7]), 0.432 µM; in series [2] (setting [8]) it was 1.09 µM. Also, the Dark/Light in series [1] stood at 10.074; in series [2] (no Ko-143) it was 2.52.
Turning to `CCN(CC)CCNC(=O)c1c(C)[nH]c(/C=C2\C(=O)Nc3cc(N=[N+]=[N-])c(F)cc32)c1C` [6-azido-sunitinib (3), 6-azido-sunitinib], the IC50 in series [1] (setting [5]) came to 0.0117 µM; in series [1] (setting [6]) it was 0.0532 µM; in series [2] (setting [7]), 0.087 µM; in series [2] (setting [8]), 0.228 µM. In addition, the Dark/Light in series [1] was determined as 4.57; in series [2] (no Ko-143) it was 2.62.
Turning to `CCN(CC)CCNC(=O)c1c(C)[nH]c(/C=C2\C(=O)Nc3ccc(N=[N+]=[N-])cc32)c1C` [5-defluoro-5-azido-sunitinib (1), 5-defluoro-5-azido-sunitinib], the IC50 in series [1] (setting [5]) worked out at 0.0368 µM; in series [1] (setting [6]), 0.263 µM; in series [2] (setting [7]), 0.951 µM; in series [2] (setting [8]) it was 3.54 µM. Further, the Dark/Light in series [1] was found to be 7.136; in series [2] (no Ko-143), 3.72.
Turning to `Cc1[nH]c(/C=C2\C(=O)Nc3ccc(F)cc32)c(C)c1C(=O)N[C@H]1CCN(C(=O)N(C)C)C1` [vorolanib], the “efficacy against neovascular AMD” value in series [3] is “effective”. For the same molecule, the adverse effects entry in series [4] was “hepatobiliary and gastrointestinal adverse effects; also recorded: intolerable levels of side effects”.
For the molecule `COc1ccc2c3c([nH]c2c1)[C@H](CC(C)C)N1C(=O)[C@H](CCC(=O)OC(C)(C)C)NC(=O)[C@@H]1C3` [Ko-143, reference compound], the effect on tubulogenesis result in series [2] (result in words) is recorded as “no effect”.
`Cc1[nH]c(/C=C2\C(=O)Nc3cc(N=[N+]=[N-])ccc32)c(C)c1C(=O)N[C@H]1CCN(C(=O)N(C)C)C1` [5-defluoro-6-azido-vorolanib (7), 5-defluoro-6-azido-vorolanib]: the figures for the IC50 in series [1] (setting [5]) and in series [1] (setting [6]) were 0.0101 µM and 0.0534 µM, respectively. The Dark/Light in series [1] is on record as 5.29.
`CCN(CC)CCNC(=O)c1c(C)[nH]c(/C=C2\C(=O)Nc3cc(Br)c(N=[N+]=[N-])cc32)c1C` [5-defluoro-5-azido-6-bromo-sunitinib (6), 5-defluoro-5-azido-6-bromo-sunitinib]: the IC50 in series [1] (setting [5]) is 0.0035 µM; in series [1] (setting [6]), 0.0604 µM and 0.0607 µM. In addition, the Dark/Light in series [1] is on record as 17.25.
In the case of `Cc1[nH]c(/C=C2\C(=O)Nc3cc(Cl)c(N=[N+]=[N-])cc32)c(C)c1C(=O)N[C@H]1CCN(C(=O)N(C)C)C1` [5-defluoro-5-azido-6-chloro-vorolanib], the IC50 is 0.000921 µM in series [1] (setting [5]); 0.0578 µM in series [1] (setting [6]); 0.173 µM in series [2] (cold white LED light 10 min, 500 nM of Ko-143 in the medium, read-out: IC50 Light); 0.135 µM in series [2] (Homo sapiens, HRMEC, 10 min, cold white LED light 10 min, 500 nM of Ko-143 in the medium, read-out: IC50 Light). Moreover, the Dark/Light in series [1] is recorded as 62.80; in series [2] (500 nM of Ko-143) it was 3.97.
`CCN(CC)CCNC(=O)c1c(C)[nH]c(/C=C2\C(=O)Nc3cc(F)c(N=[N+]=[N-])cc32)c1C` [5-defluoro-5-azido-6-fluoro-sunitinib]: the figures for the IC50 in series [1] (setting [5]) and in series [1] (setting [6]) were 0.00886 µM and 0.069 µM, respectively. For the same molecule, the Dark/Light in series [1] is 7.79.
Regarding `CCN(CC)CCNC(=O)c1c(C)[nH]c(/C=C2\C(=O)Nc3cc(Cl)c(N=[N+]=[N-])cc32)c1C` [5-defluoro-5-azido-6-chloro-sunitinib], the IC50 in series [1] (setting [5]) came to 0.00223 µM; in series [1] (setting [6]) it was 0.0404 µM; in series [2] (setting [7]) it was 0.168 µM; in series [2] (setting [8]) it was 0.655 µM. Moreover, the values for the Dark/Light in series [1] and in series [2] (no Ko-143) were 18.12 and 3.48, respectively.
